The values that follow come from US20250051347A1, “BIFUNCTIONAL CHIMERIC HETEROCYCLIC COMPOUND AND USE THEREOF AS ANDROGEN RECEPTOR DEGRADER” (Hinova Pharmaceuticals, Inc., priority 2021, published 2025).

As a reminder, the DC50 is the concentration at which degradation of the target reaches its halfway point.

One experiment concerns the target T1, androgen receptor (AR) splicing variant AR-v7 (Homo sapiens, UniProt P10275).
T1 construct: The degradation activity of compounds on AR-v7 in 22RV1 cells; host or cells: 22RV1 cells
T1 sequence (P10275 1-644 isoform P10275-3): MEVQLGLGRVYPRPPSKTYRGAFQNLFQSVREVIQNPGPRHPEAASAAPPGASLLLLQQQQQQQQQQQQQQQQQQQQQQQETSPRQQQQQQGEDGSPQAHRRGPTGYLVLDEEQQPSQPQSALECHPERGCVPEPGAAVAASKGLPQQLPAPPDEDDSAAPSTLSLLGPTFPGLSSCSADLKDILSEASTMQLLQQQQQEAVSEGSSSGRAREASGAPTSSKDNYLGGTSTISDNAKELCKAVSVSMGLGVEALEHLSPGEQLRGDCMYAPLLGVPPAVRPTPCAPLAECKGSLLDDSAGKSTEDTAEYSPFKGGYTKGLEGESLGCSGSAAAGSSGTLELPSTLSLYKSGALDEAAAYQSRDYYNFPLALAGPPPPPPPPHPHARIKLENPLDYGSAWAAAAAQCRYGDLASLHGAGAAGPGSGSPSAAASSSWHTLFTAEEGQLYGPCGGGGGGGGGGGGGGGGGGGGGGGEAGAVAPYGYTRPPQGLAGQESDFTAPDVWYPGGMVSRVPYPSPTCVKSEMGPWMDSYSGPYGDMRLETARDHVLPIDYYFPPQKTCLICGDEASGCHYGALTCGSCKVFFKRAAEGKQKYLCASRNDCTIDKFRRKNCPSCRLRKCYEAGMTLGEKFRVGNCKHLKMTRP
The experiment can be described thus: Degradation activity on androgen receptor splicing variant AR-v7 in 22RV1 cells (ELISA). The note with it: AR-v7 degradation in 22RV1 cells, 48 h, class symbols. The experiment is classed as cell-based.
As to `CC(C)(c1ccc(Oc2nc(-n3ccnn3)ccc2F)cc1)c1ccc(O[C@H]2C[C@H](Nc3ccc4c(c3)C(=O)N(C3CCC(=O)NC3=O)C4=O)C2)cc1` (stereo partly drawn) [Example 319], the DC50 is 11 to 100 nM.
Same read-out and setting: with `Cc1noc(-c2nccc(COc3ccc(C(C)(C)c4ccc(O[C@H]5C[C@H](Nc6ccc7c(c6)C(=O)N(C6CCC(=O)NC6=O)C7=O)C5)cc4)cc3)n2)n1` (stereo partly drawn) [Example 250] the figure was 11 to 100 nM; with `CC(C)(c1ccc(OCc2ccnc(N3CCC4(CCNC4)C3)n2)cc1)c1ccc(O[C@H]2C[C@H](Nc3ccc4c(c3)C(=O)N(C3CCC(=O)NC3=O)C4=O)C2)cc1` (stereo partly drawn) [Example 81, 5-(((1r,3r)-3-(4-(2-(4-((2-(2,7-diazaspiro[4.4]nonan-2-yl)pyrimidin-4-yl)methoxy)phenyl)propan-2-yl)phenoxy)cyclobutyl)amino)-2-(2,6-dioxopiperidin-3-yl)isoindolin-1,3-dione], 11 to 100 nM.
`CC(C)(c1ccc(OCCCOc2ccc3c(c2)C(=O)N(C2CCC(=O)NC2=O)C3=O)cc1)c1ccc(OCc2ccnc(N3CC4(COC4)C3)n2)cc1` (stereo not drawn) [Example 113, 5-(3-(4-(2-(4-((2-(2-oxa-6-azaspiro[3.3]heptan-6-yl)pyrimidin-4-yl)methoxy)phenyl)propan-2-yl)phenoxy)propoxy)-2-(2,6-dioxopiperidin-3-yl)isoindolin-1,3-dione] returned a DC50 of 1000 to 5000 nM.
Same read-out and setting: for `CC(C)(c1ccc(OCc2ccnc(N3CC4(COC4)C3)n2)cc1)c1ccc(OCC2(Nc3ccc4c(c3)C(=O)N(C3CCC(=O)NC3=O)C4=O)CCC2)cc1` (stereo not drawn) [Example 498, 5-((1-((4-(2-(4-((2-(2-oxa-6-azaspiro[3.3]heptan-6-yl)pyrimidin-4-yl)methoxy)phenyl)propan-2-yl)phenoxy)methyl)cyclobutyl)amino)-2-(2,6-dioxopiperidin-3-yl)isoindolin-1,3-dione] the value was 11 to 100 nM.
On the same count and under the same terms, for `CC(C)(c1ccc(OCCCNc2cccc3c2C(=O)N(C2CCC(=O)NC2=O)C3=O)cc1)c1ccc(OCc2cnc(N3CCOCC3)s2)cc1` (stereo not drawn) [Example 435, 2-(2,6-dioxopiperidin-3-yl)-4-((3-(4-(2-(4-((2-morpholinethiazol-5-yl)methoxy)phenyl)propan-2-yl)phenoxy)propyl)amino)isoindolin-1,3-dione] the value was 1000 to 5000 nM.
Same read-out and setting: with `CC(C)(c1ccc(OCc2nc(N3CC4(COC4)C3)ncc2Cl)cc1)c1ccc(O[C@H]2C[C@@H](Nc3ccc4c(c3)C(=O)N(C3CCC(=O)NC3=O)C4=O)C2)cc1` (stereo partly drawn) [Example 201, 5-((1s,3s)-3-(4-(2-(4-((5-chloro-2-(2-oxa-6-azaspiro[3.3]heptan-6-yl)pyrimidin-4-methoxy)phenyl)propan-2-yl)phenoxy)cyclobutyl)amino)-2-(2,6-dioxopiperidin-3-yl)isoindolin-1,3-dione] the figure was 11 to 100 nM; with `Cn1cc(-c2cccc(COc3ccc(C(C)(C)c4ccc(O[C@H]5C[C@@H](Nc6ccc7c(c6)C(=O)N(C6CCC(=O)NC6=O)C7=O)C5)cc4)cc3)n2)cn1` (stereo partly drawn) [Example 418], 11 to 100 nM; with `CC(C)(c1ccc(OCCCNc2cccc3c2C(=O)N(C2CCC(=O)NC2=O)C3=O)cc1)c1ccc(OCc2ccnc(N3CCCCC3)n2)cc1` (stereo not drawn) [Example 555], 101 to 1000 nM.
Compound `CC(C)(c1ccc(OCc2ccnc(N3C[C@@H]4C[C@H]3CN4)n2)cc1)c1ccc(O[C@H]2C[C@@H](Nc3ccc4c(c3)C(=O)N(C3CCC(=O)NC3=O)C4=O)C2)cc1` (stereo partly drawn) [Example 260, 5-(((1s,3s)-3-(4-(2-(4-((2-((1S,4S)-2,5-diazabicyclo[2.2.1]heptan-2-yl)pyrimidin-4-yl)methoxy)phenyl)propan-2-yl)phenoxy)cyclobutyl)amino)-2-(2,6-dioxopiperidin-3-yl)isoindolin-1,3-dione] returned a DC50 of 11 to 100 nM.
Still for that read-out and setting: with `CC(C)(c1ccc(Oc2nc(N3CC4(COC4)C3)ncc2F)cc1)c1ccc(O[C@H]2C[C@@H](Nc3ccc4c(c3)C(=O)N(C3CCC(=O)NC3=O)C4=O)C2)cc1` (stereo partly drawn) [Example 158] the figure was 11 to 100 nM; with `Cc1nc(-c2ccc(Oc3ccc(C(C)(C)c4ccc(OC5CC(Nc6ccc7c(c6)C(=O)N(C6CCC(=O)N(C)C6=O)C7=O)C5)cc4)cc3)nn2)no1` (stereo not drawn) [Example 335, 5-((1r,3r)-3-(4-(2-(4-((6-(5-methyl-1,2,4-oxadiazol-3-yl)pyridazine-3-yl)oxy)phenyl)propan-2-yl)phenoxy)cyclobutyl)amino)-2-(1-methyl-2,6-dioxopiperidin-3-yl)isoindolin-1,3-dione], 101 to 1000 nM; with `CC(C)(c1ccc(OCCCNc2ccc3c(c2)C(=O)N(C2CCC(=O)NC2=O)C3=O)cc1)c1ccc(OCc2ccnc(N3CCCC3)n2)cc1` (stereo not drawn) [Example 440, 2-(2,6-dioxopiperidin-3-yl)-5-((3-(4-(2-(4-((2-(pyrrolidin-1-yl)pyrimidin-4-yl)methoxy)phenyl)propan-2-yl)phenoxy)propyl)amino)isoindolin-1,3-dione], 11 to 100 nM.
On the same count and under the same terms, for `CN1CC(Oc2nccc(COc3ccc(C(C)(C)c4ccc(O[C@H]5C[C@@H](Nc6ccc7c(c6)C(=O)N(C6CCC(=O)NC6=O)C7=O)C5)cc4)cc3)n2)C1` (stereo partly drawn) [Example 407] the value was 11 to 100 nM; for `CC(C)(c1ccc(OCCNc2cccc3c2C(=O)N(C2CCC(=O)NC2=O)C3=O)cc1)c1ccc(OCc2ccnc(NS(C)(=O)=O)n2)cc1` (stereo not drawn) [Example 53, N-(4-((4-(2-(4-(2-((2-(2,6-dioxopiperidin-3-yl)-1,3-dioxoisoindolin-4-yl)amino)ethoxy)phenyl)isopropan-2-yl)phenoxy)methyl)pyrimidin-2-yl)methanesulfonamide], 1000 to 5000 nM.
For the compound `CC(C)(c1ccc(OCc2ccnc(N3CC4(COC4)C3)n2)cc1)c1ccc(N2CC(CNc3ccc4c(c3)C(=O)N(C3CCC(=O)NC3=O)C4=O)C2)cc1` (stereo not drawn) [Example 570], the DC50 fell in the range of 101 to 1000 nM.
`CC(C)(c1ccc(OCCCCCCCOCCN2CCN(c3ccc4c(c3)C(=O)N(C3CCC(=O)NC3=O)C4=O)CC2)cc1)c1ccc(OCc2ccnc(NS(C)(=O)=O)n2)cc1` (stereo not drawn) [Example 2, N-(4-((4-(2-(4-((7-(2-(4-(2-(2,6-dioxopiperidin-3-yl)-1,3-dioxoisoindolin-5-yl)piperazin-1-yl)ethoxy)heptyl)oxy)phenyl)propan-2-yl)phenoxy)methyl)pyrimidin-2-yl)methanesulfonamide] yielded a DC50 of 101 to 1000 nM.
The compound `CC(C)(c1ccc(OCc2ccnc(N3CC4(COC4)C3)n2)cc1)c1ccc(OC[C@H]2CCCN2c2ccc3c(c2)C(=O)N(C2CCC(=O)NC2=O)C3=O)cc1` (stereo partly drawn) [Example 314, 5-((R)-2-((4-(2-(4-((2-(2-oxa-6-azaspiro[3.3]heptan-6-yl)pyrimidin-4-yl)methoxy)phenyl)propan-2-yl)phenoxy)methyl)pyrrolidin-1-yl)-2-(2,6-dioxopiperidin-3-yl)isoindolin-1,3-dione] came in with a DC50 of 1000 to 5000 nM.
On the same count and under the same terms, with `Cc1noc(C)c1-c1nccc(COc2ccc(C(C)(C)c3ccc(O[C@H]4C[C@H](Nc5ccc6c(c5)C(=O)N(C5CCC(=O)NC5=O)C6=O)C4)cc3)cc2)n1` (stereo partly drawn) [Example 271] the figure was 11 to 100 nM.
Same read-out and setting: with `Cc1nc(-c2cnc(Oc3ccc(C(C)(C)c4ccc(O[C@H]5C[C@@H](Nc6ccc7c(c6)C(=O)N(C6CCC(=O)NC6=O)C7=O)C5)cc4)cc3)nc2)no1` (stereo partly drawn) [Example 336] the figure was 11 to 100 nM.
The same measure, in the same setting: with `CC(=O)c1cc(COc2ccc(C(C)(C)c3ccc(OCCCCCCCCOCCCCNc4ccc5c(c4)C(=O)N(C4CCC(=O)NC4=O)C5=O)cc3)cc2)ccn1` (stereo not drawn) [Example 347, 5-((4-((8-(4-(2-(4-((2-acetylpyridin-4-yl)methoxy)phenyl)isopropan-2-yl)phenoxy)octyl)oxy)butyl)amino)-2-(2,6-dioxopiperidin-3-yl)isoindolin-1,3-dione] the figure was 1000 to 5000 nM.

The same experiment, now with this note: AR-v7 degradation in 22RV1 cells, 48 h, numeric values.
`CC(C)(c1ccc(OCCCCCOCCCOCC2CCN(c3ccc4c(c3)C(=O)N(C3CCC(=O)NC3=O)C4=O)C2)cc1)c1ccc(OCc2ccnc(NS(C)(=O)=O)n2)cc1` (stereo not drawn) [Example 52, N-(4-((4-(2-(4-((5-(3-((1-(2-(2,6-dioxopiperidin-3-yl)-1,3-dioxoisoindolin-5-yl)pyrrolidin-3-yl)methoxy)propoxy)pentyl)oxy)phenyl)propan-2-yl)phenoxy)methyl)pyrimidin-2-yl)methanesulfonamide]: the DC50 was more than 10000 nM.
On the same count and under the same terms, for `CC(C)(c1ccc(OCc2ccnc(NS(C)(=O)=O)n2)cc1)c1ccc(OC[C@H]2CC[C@H](CN3CCC(CN4CCC5(CC4)CN(c4ccc6c(c4)C(=O)N(C4CCC(=O)NC4=O)C6=O)C5)CC3)CC2)cc1` (stereo partly drawn) [Example 39] the value was more than 10000 nM.
The same measure, in the same setting: for `CC(C)(c1ccc(OCCCCCCOCCCCN2CCN(c3ccc4c(c3)C(=O)N(C3CCC(=O)NC3=O)C4=O)CC2)cc1)c1ccc(OCc2ccnc(NS(C)(=O)=O)n2)cc1` (stereo not drawn) [Example 8, N-(4-((4-(2-(4-((6-(4-(4-(2-(2,6-dioxopiperidin-3-yl)-1,3-dioxoisoindolin-5-yl)piperazin-1-yl)butoxy)hexyl)oxy)phenyl)propan-2-yl)phenoxy)methyl)pyrimidin-2-yl)methanesulfonamide] the value was 5270 nM.
